Where two headings read alike, the source gives them in different places. Numbered stars: 1 amine (or outer) side, 2 acyl side, 3 side chain; on linkers, the order of the positions; unused ones are H or OH. Square brackets hold non-standard residues; d marks the D form. Side chains are listed from the residue outwards. Peptide text beside a SMILES is read from it. * marks the point of attachment. Biotin = O=C1N[C@H]2[C@H](CS[C@H]2CCCCC(=O)*)N1; C18 diacid = O=C(O)CCCCCCCCCCCCCCCCC(=O)*; γGlu = O=C(O)[C@H](CCC(=O)[*:2])N[*:1]; AEEA = NCCOCCOCC(=O)O; Aib = CC(C)(N)C(=O)O
Assays:
[1] = format: in vitro ADME; settings: pH 7.8
Experimental: For the stability against trypsin, the test samples were prepared by mixing stock solutions of peptide and trypsin dissolved in 50 mM PBS (pH 7.8) containing 0.02% PS80 in a weight ratio of 10:1. The test samples were incubated at 37° C. for 180 min. The sampling from test samples was proceeded at the predetermined time points (10, 30, 60, 90, 120, and 180 min) and stopped by 10% TFA solution.
(§1) Analytical HPLC was performed to determine the remaining amount on an ACQUITY Premier system (Waters, USA) with an ACQUITY CSH C18 column (Waters, USA) at 35° C. using 0.1% TFA in water and acetonitrile. The remaining amount was determined as a percentage of the peak area at the sampling time point relative to the peak area of the initial sample.

[2] = rat, in vivo, iv
Experimental: This study was conducted to evaluate the PK profile of SEQ ID NOs. 77, 102, and 103 and compare the PK profile by the different lipidated structure of peptides in rat plasma by IV administration. SEQ ID NOs. The peptides were delivered at 0.02% PS80 in PBS and dosing volume was 2.5 mL/kg.
The animals were not fasted prior to dosing. 0.2-0.4 mL of whole blood was taken from vein at each time point (0.167, 0.5, 1, 2, 4, 6, 8, 24, and 48 hr after administration) and transferred into the heparin coated tube.
The resulting plasma of 0.1-0.2 mL obtained by centrifugation of the blood samples was transferred into the tube and stored at −70° C. until analysis. The concentrations of peptides in plasma were determined by LC-MS/MS analysis.

[3] = In vitro enzymatic stability against FaSSIF/P (pancreatin in FaSSIF, pH 6.5); format: in vitro ADME; settings: simulated gi fluid, pH 6.5, Half-life (min)
Experimental: This study was conducted to determine the enzymatic stability of SEQ ID NOs. 77, 86, 87, 89, 90, and 91 after biotinylation in artificial intestinal environment. The test samples were prepared by mixing stock solutions of peptide and pancreatin dissolved in FaSSIF solution (pH 6.5) in a weight ratio of 25:1. The test samples were incubated at 37° C. for 120 min. The sampling from test samples was proceeded at the predetermined time points (10, 30, 60, and 120 min) and stopped by 10% TFA solution.
as §1
For the stability against FaSSIF/P, the test samples were prepared by mixing stock solutions of peptide and pancreatin dissolved in FaSSIF solution (pH 6.5) in a weight ratio of 19:1. The test samples were incubated at 37° C. for 120 min. The sampling from test samples was proceeded at the predetermined time points (10, 30, 60, and 120 min) and stopped by 10% TFA solution.

[4] = Intestinal absorption / PK after intraduodenal administration of oral formulation in rats, serum LC-MS/MS; settings: rat, in vivo
Experimental: This study was conducted to evaluate the intestinal absorption of peptides following enteral administration of oral pharmaceutical formulations. The pharmaceutical formulation was administered in a form of suspensions by intraduodenal (ID) injection in rats. SEQ ID_87, 89 and 90 was accurately weighed and dissolved in 10 mM PBS containing polysorbate 80 (pH 7.4, vehicle I). The mixture was vortexed for 5 min to get a clear solution. Then, 2.5 mL of vehicle was added to the mixture and vortexed for 30 min to get homogenous opaque suspension. The composition of Vehicle II was sodium chenodeoxycholate, and propyl gallate in polysorbate 80 in PBS. The animals were not fasted prior to dosing. 0.2˜ 0.4 mL of whole blood was taken from vein at each time point (0, 0.167, 0.5, 1, 2, 4, 8, 24, and 48 hrs after IV or ID administration). The collected whole blood was incubated at room temperature for 20 min and tubes were centrifugated at 13,000 rpm for 10 min at 4° C. The resulting serum 0.1˜ 0.2 mL was transferred into the tube and stored at −70° C. until analysis. The concentrations of peptides in serum were determined by LC-MS/MS analysis. PK parameters were analyzed by non-compartmental analysis using Phoenix WinNonlin 5.0.1. software (Pharsight Corporation, Mountain View, CA, USA).

human GCGR = target: T1, human GCGR (Homo sapiens, UniProt P47871); experiment: cAMP assay (HitHunter cAMP) in GCGR-expressing CHO-K1 cells (GCGR+ cells); format: cell-based; settings: Table 31
T1 construct: host or cells: CHO-K1
Procedure, shortened: (§2)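 CHO-K1 cells expressing each receptor were plated overnight, then treated with peptide in cAMP assay buffer for 30 min at 37 °C. cAMP was detected by antibody plus detection solution (1 h) and Solution A (3 h), both at room temperature in the dark. Luminescence was the read-out.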

human GLP-1R = target: T2, human GLP-1R (Homo sapiens, UniProt P43220); experiment: cAMP assay (HitHunter cAMP) in GLP-1R-expressing CHO-K1 cells (GLP-1R+ cells); format: cell-based; settings: Table 31
T2 construct: host or cells: CHO-K1
Procedure, shortened: as §2

[5] = Body weight loss in high fat diet (HFD) mice, 2 weeks; format: in vivo; settings: 20 nmol/kg s.c. Q2D
Experimental: This study was conducted to confirm the body weight loss effect and select the peptides to be evaluated in high fat diet (HFD) treated mouse, which is widely used as experimental animal model in obesity and diabetes studies. SEQ ID NOs. The peptides were delivered at 0.02% PS80 in PBS and dosing volume was 10 mL/kg. Body weight changes, blood glucose, and food intake were monitored Q2D. Animals were fasted at least 4 hours prior to blood glucose measurement.

human GIPR = target: T3, human GIPR (Homo sapiens, UniProt P48546); experiment: cAMP assay (HitHunter cAMP) in GIPR-expressing CHO-K1 cells (GIPR+ cells); format: cell-based; settings: Table 31
T3 construct: host or cells: CHO-K1
T3 sequence (P48546 22-466): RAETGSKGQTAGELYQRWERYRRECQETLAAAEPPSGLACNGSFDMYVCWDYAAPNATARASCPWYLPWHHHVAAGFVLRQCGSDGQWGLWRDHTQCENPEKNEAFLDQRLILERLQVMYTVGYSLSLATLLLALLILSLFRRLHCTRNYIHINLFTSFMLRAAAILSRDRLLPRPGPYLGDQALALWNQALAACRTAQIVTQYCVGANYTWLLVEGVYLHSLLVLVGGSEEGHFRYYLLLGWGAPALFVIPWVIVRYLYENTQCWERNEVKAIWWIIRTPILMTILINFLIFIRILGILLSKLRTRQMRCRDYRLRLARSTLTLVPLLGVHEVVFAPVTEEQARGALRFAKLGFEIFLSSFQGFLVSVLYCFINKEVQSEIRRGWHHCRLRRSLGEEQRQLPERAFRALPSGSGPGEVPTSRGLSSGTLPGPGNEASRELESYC
Procedure, shortened: as §2

T1 sequence (P47871 26-477): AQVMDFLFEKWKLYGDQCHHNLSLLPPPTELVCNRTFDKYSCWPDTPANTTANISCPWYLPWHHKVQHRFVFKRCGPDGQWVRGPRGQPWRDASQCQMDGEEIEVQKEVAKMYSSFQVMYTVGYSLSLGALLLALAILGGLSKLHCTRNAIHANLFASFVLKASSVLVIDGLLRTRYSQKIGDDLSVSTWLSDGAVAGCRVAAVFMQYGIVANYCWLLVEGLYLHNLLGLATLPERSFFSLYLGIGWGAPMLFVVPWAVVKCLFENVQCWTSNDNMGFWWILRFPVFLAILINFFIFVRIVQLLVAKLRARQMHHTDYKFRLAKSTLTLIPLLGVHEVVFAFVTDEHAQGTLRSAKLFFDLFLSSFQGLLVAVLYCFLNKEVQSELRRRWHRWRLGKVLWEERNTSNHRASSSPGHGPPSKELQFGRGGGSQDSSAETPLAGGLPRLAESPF
T2 sequence (P43220 24-463): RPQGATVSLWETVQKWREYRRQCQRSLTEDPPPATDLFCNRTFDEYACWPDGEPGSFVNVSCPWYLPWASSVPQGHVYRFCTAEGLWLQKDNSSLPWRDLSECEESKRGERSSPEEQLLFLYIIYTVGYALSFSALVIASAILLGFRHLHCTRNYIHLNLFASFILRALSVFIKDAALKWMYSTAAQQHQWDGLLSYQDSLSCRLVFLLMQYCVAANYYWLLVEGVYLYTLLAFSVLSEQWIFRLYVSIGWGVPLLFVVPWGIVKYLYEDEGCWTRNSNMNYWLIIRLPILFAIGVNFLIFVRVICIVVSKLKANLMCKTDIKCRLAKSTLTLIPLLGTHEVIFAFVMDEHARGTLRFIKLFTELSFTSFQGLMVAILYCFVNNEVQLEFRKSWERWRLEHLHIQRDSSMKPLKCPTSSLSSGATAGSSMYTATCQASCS

SMILES | half-life [1] [min] | PK parameter values (half-life and AUCinf/dose), comparison in words [2] | AUCinf/dose ([2]; 100 nmol/kg) [kg·h/L] | half-life ([2]; 100 nmol/kg) [min] | half-life [3] [min] | half-life ([3]; FaSSIF/P) [min] | AUC(0-inf) [4] [ng·h/mL] | Cmax [4] [ng/mL] | half-life [4] [min] | time at which Cmax was reached [4] [h] | Ratio vs. GLP-1R, GCGR (human GCGR) | Relative % to native ligand, GCGR (human GCGR) [%] | Ratio vs. GLP-1R, GLP-1R (human GLP-1R) | Relative % to native ligand, GLP-1R (human GLP-1R) [%] | body weight loss effect compared to SEQ ID NO. 77, in words [5] | Ratio vs. GLP-1R, GIPR (human GIPR) | Relative % to native ligand, GIPR (human GIPR) [%]
CC[C@H](C)[C@H](NC(=O)[C@H](CC(C)C)NC(=O)[C@H](Cc1c[nH]c2ccccc12)NC(=O)[C@H](CC(C)C)NC(=O)[C@@H](NC(=O)[C@H](Cc1ccccc1)NC(=O)[C@H](CC(=O)O)NC(=O)CNC(=O)[C@H](C)NC(=O)[C@H](Cc1c[nH]c2ccccc12)NC(=O)[C@@H]1CCCN1C(=O)CNC(=O)[C@H](CC(=O)O)NC(=O)[C@H](CC(C)C)NC(=O)[C@H](Cc1ccc(O)cc1)NC(=O)[C@H](Cc1c[nH]c2ccccc12)NC(=O)[C@H](CO)NC(=O)[C@H](CCCCN)NC(=O)[C@H](CC(=O)O)NC(=O)[C@H](CO)NC(=O)[C@@H](NC(=O)[C@H](Cc1ccccc1)NC(=O)[C@@H](NC(=O)CNC(=O)[C@H](CCC(N)=O)NC(=O)C(C)(C)NC(=O)[C@@H](N)Cc1c[nH]cn1)[C@@H](C)O)[C@@H](C)O)C(C)C)C(=O)N[C@@H](CCC(=O)O)C(=O)NCC(=O)NCC(=O)N1CCC[C@H]1C(=O)N[C@@H](CO)C(=O)N[C@@H](CO)C(=O)NCC(=O)N[C@@H](C)C(=O)N1CCC[C@H]1C(=O)N1CCC[C@H]1C(=O)N1CCC[C@H]1C(=O)N[C@@H](CO)C(=O)N[C@@H](CS)C(=O)O [compound 77, HAibQGT FTSDKSWYLDGPWAGDFVLWLIEGGPSSGAPPPSC] (H-H[Aib]QGTFTSDKSWYLDGPWAGDFVLWLIEGGPSSGAPPPSC-OH; N-terminus and C-terminus assumed) | 92.5 | significantly low | 156.76 ± 27.16 | 427 ± 24 | 39.4 | 36.9 |  |  |  |  |  |  |  |  |  |  | 
CSCC[C@H](NC(=O)[C@H](CCCCNC(=O)CCCC[C@@H]1SC[C@@H]2NC(=O)N[C@@H]21)NC(=O)[C@H](Cc1ccc(O)cc1)NC(=O)[C@H](CC(=O)O)NC(=O)[C@H](CC(C)C)NC(=O)[C@H](CC(C)C)NC(=O)[C@H](CCCCNC(=O)COCCOCCNC(=O)COCCOCCNC(=O)CC[C@H](NC(=O)CCCCCCCCCCCCCCCCC(=O)O)C(=O)O)NC(=O)[C@H](CO)NC(=O)[C@H](Cc1ccc(O)cc1)NC(=O)[C@H](CC(=O)O)NC(=O)[C@H](CO)NC(=O)[C@@H](NC(=O)[C@H](Cc1ccccc1)NC(=O)[C@@H](NC(=O)CNC(=O)[C@H](CCC(N)=O)NC(=O)C(C)(C)NC(=O)[C@@H](N)Cc1ccc(O)cc1)[C@@H](C)O)[C@@H](C)O)C(=O)N[C@@H](CCC(N)=O)C(=O)N[C@@H](CCCNC(=N)N)C(=O)N[C@@H](CC(=O)O)C(=O)N[C@@H](Cc1ccccc1)C(=O)N[C@H](C(=O)N[C@@H](CCC(N)=O)C(=O)N[C@@H](Cc1c[nH]c2ccccc12)C(=O)N[C@@H](CC(C)C)C(=O)N[C@@H](CC(C)C)C(=O)N[C@@H](CCC(=O)O)C(=O)NCC(=O)NCC(=O)N1CCC[C@H]1C(=O)N[C@@H](CO)C(=O)N[C@@H](CO)C(=O)NCC(=O)N[C@@H](C)C(=O)N1CCC[C@H]1C(=O)N1CCC[C@H]1C(=O)N1CCC[C@H]1C(=O)N[C@@H](CO)C(N)=O)C(C)C [compound 87] (H-Y[Aib]QGTFTSDYSK([AEEA-AEEA-γGlu-C18 diacid])LLDYK(Biotin)MQRDFVQWLLEGGPSSGAPPPS-NH2; N-terminus and C-terminus assumed) |  |  |  |  | 16.4 |  | 1860 | 290 | 370 | 0.25 | 60 | 66 | 100 | 110 | inferior | 281 | 308
CSCC[C@H](NC(=O)[C@H](CCCCNC(=O)CCCC[C@@H]1SC[C@@H]2NC(=O)N[C@@H]21)NC(=O)[C@H](CC(=O)O)NC(=O)[C@H](CC(C)C)NC(=O)[C@H](CC(C)C)NC(=O)[C@H](CCCCNC(=O)COCCOCCNC(=O)COCCOCCNC(=O)CC[C@H](NC(=O)CCCCCCCCCCCCCCCCC(=O)O)C(=O)O)NC(=O)[C@H](CO)NC(=O)[C@H](Cc1ccc(O)cc1)NC(=O)[C@H](CC(=O)O)NC(=O)[C@H](CO)NC(=O)[C@@H](NC(=O)[C@H](Cc1ccccc1)NC(=O)[C@@H](NC(=O)CNC(=O)[C@H](CCC(N)=O)NC(=O)C(C)(C)NC(=O)[C@@H](N)Cc1ccc(O)cc1)[C@@H](C)O)[C@@H](C)O)C(=O)N[C@@H](CCSC)C(=O)N[C@@H](CCC(N)=O)C(=O)N[C@@H](CCCNC(=N)N)C(=O)N[C@@H](CC(=O)O)C(=O)N[C@@H](Cc1ccccc1)C(=O)N[C@H](C(=O)N[C@@H](CCC(N)=O)C(=O)N[C@@H](Cc1c[nH]c2ccccc12)C(=O)N[C@@H](CC(C)C)C(=O)N[C@@H](CC(C)C)C(=O)N[C@@H](CCC(=O)O)C(=O)NCC(=O)NCC(=O)N1CCC[C@H]1C(=O)N[C@@H](CO)C(=O)N[C@@H](CO)C(=O)NCC(=O)N[C@@H](C)C(=O)N1CCC[C@H]1C(=O)N1CCC[C@H]1C(=O)N1CCC[C@H]1C(=O)N[C@@H](CO)C(N)=O)C(C)C [compound 86] (H-Y[Aib]QGTFTSDYSK([AEEA-AEEA-γGlu-C18 diacid])LLDK(Biotin)MMQRDFVQWLLEGGPSSGAPPPS-NH2; N-terminus and C-terminus assumed) |  |  |  |  | 25.4 |  |  |  |  |  | 157 | 142 | 100 | 90 | inferior | 639 | 575
